Laboratory results published in patent US4661297A, “Basic ethers of 7-oxo-7H-benzo(c) fluorene and a process for their production” (SPOFA, spojene podniky pro zdravotnickou vyrobu, priority 1980, dated 1987).
“And” between values parts separate entries of the source, which are not always exact repeats. Identical values can stand only once. “Also recorded” adds a separate entry of the source. Like-named read-outs stand apart in the source and are kept apart here.

How the values were obtained:
[1] = test system: Ehrlich's ascitic carcinoma; experiment: Incorporation of 14C-adenine and 14C-valine into cellular fraction of Ehrlich's ascitic carcinoma in vitro; type: cell-based, mouse; conditions: for Radioactivity incorporation, adenine: control 1060 cpm; for Radioactivity incorporation, valine: control 2455 cpm; for IC50 / activity at 75 µM / activity at 150 µM / activity at 18.75 µM / activity at 37.5 µM: Mus musculus, Ehrlich
Text: In Table 4, the effect of Tiloron (NSC 143969; 2,7-bis-[2-(diethylamino)ethoxy]fluorene-9-one) and 5-(2-dimethylaminoethoxy)-7-oxo-7H-benzo(c) fluorene hydrochloride are compared on incorporation of ^14 C-adenine and ^14 C-valine with the cellular fraction of Ehrlich's ascitic carcinoma (insoluble in trichloacetic acid). The tests in vitro reveal that the composition of the invention was more than 10 times as effective as Tiloron. The inhibition of incorporation of adenine and valine into the used system of tumor cells is considered as an indication of an anti-tumorous, cytostatic action. This biological activity of the described compound is considerably greater than that of its congener Tiloron. (See also Table 4.)
Effects of Tiloron and substance 13468 on incorporation of ^14
C-adenine and ^14 C-valine
into cellular fraction of Ehrlichs ascitic carcinoma, insoluble in
in vitro. Radioactivity incorporation expressed in cpm.
IC50 = concentration inhibiting incorporation by 50 percent.

[2] = test system: Yoshida's Tumor; experiment: Inhibition of incorporation of labelled substrates in Yoshida's tumor; type: cell-based; conditions: Rattus norvegicus, read-out: IC50
Text: Tumor growth may be observed clinically or in experiments in vivo, that is, with experimental animals, or in vitro, for example, in tissue cultures prepared from tumors. Assessment of tumor growth may be effected by measuring the weight of the tumor mass or, more effectively, by measuring the radioactivity after incorporation therein of certain substances of natural origin such as amino acids, adenine, thymidine and the like labelled with radioactive atoms such as ^14 C, ^3 H, etc.
Thus, by way of exemplification, the IC^50 values (inhibitory concentration which lowered the initial rate of ^14 C incorporation to 50% of control) are shown in Table VI, below (Yoshida's Tumor, (U-^14 C) amino acid mixture)
The ^IC 50 values of compound 13468 are also shown in Table VII with varying substrates.

[3] = test system: haemolysins (antibody formation); experiment: Haemolysin titre in mouse serum after ram erythrocyte immunization; type: in vivo; conditions: day 9; for Haemolysins titre: control 37
Text: (§1) Haemagglutanin and haemolysin titres in mouse serum on day 9 after ram
(§2) immunization under effect of substance 13468. Substance injected
(§3) either for 5 days (2 days before, on day of, 2 days after immunization)
(§4) (2 days before, on day of, 8 days after immunization). Groups of 12
(§5) expressed by mean value of highest attenuation of serum eliciting

[4] = test system: Ehrlich tumor; experiment: Inhibition of incorporation of labelled substrate in Ehrlich tumor; type: cell-based; conditions: Mus musculus, substrate L-(U-14C) amino acid mixture
[5] = test system: haemagglutinins (antibody formation); experiment: Haemagglutinin titre in mouse serum after ram erythrocyte immunization; type: in vivo; conditions: for Haemagglutinins % of control titre / Haemagglutinins titre: day 9; for Haemagglutinins titre: control 343
Text: as §1, §2, §3, §4, §5

[6] = Acute toxicity in mice; conditions: mouse, in vivo, mice S, males 22-24 gram
Text: The anti-tumor compounds described herein have also been studied from the standpoint of toxicity and the conclusion drawn that they are not toxic to mammalian hosts. The toxicological data set forth in Table IX, below, supports this conclusion.

[7] = test system: human myelogenous leukemia cells; experiment: DNA biosynthesis inhibition in human myelogenous leukemia cells; type: cell-based

## CN(C)CCOc1cc2c(c3ccccc13)-c1ccccc1C2=O.Cl [compound 13468, 5-(2-Dimethylaminoethoxy)-7-oxo-7H-benzo(c) fluorene hydrochloride]
[1]; 75 μM
  Radioactivity incorporation, adenine: 266 cpm
  Radioactivity incorporation, valine: 887 cpm
[1]; 150 μM
  Radioactivity incorporation, adenine: 59 cpm
  Radioactivity incorporation, valine: 349 cpm
[1]; 18,75 μM
  Radioactivity incorporation, adenine: 757 cpm
  Radioactivity incorporation, valine: 2394 cpm
[1]; 37,5 μM
  Radioactivity incorporation, adenine: 714 cpm
  Radioactivity incorporation, valine: 2253 cpm
[1]; read-out: IC50 (concentration inhibiting incorporation by 50 percent), adenine
  IC50: 53 µM
[1]; read-out: IC50 (concentration inhibiting incorporation by 50 percent), valine
  IC50: 65 µM
[1]; 75 μM, read-out: Incorporation of adenine relative to control (0 μM = 100%)
  activity at 75 µM: 25%
[1]; 75 μM, read-out: Incorporation of valine relative to control (0 μM = 100%)
  activity at 75 µM: 36%
[1]; 150 μM, read-out: Incorporation of adenine relative to control (0 μM = 100%)
  activity at 150 µM: 6%
[1]; 150 μM, read-out: Incorporation of valine relative to control (0 μM = 100%)
  activity at 150 µM: 14%
[1]; 18,75 μM, read-out: Incorporation of adenine relative to control (0 μM = 100%)
  activity at 18.75 µM: 71%
[1]; 18,75 μM, read-out: Incorporation of valine relative to control (0 μM = 100%)
  activity at 18.75 µM: 98%
[1]; 37,5 μM, read-out: Incorporation of adenine relative to control (0 μM = 100%)
  activity at 37.5 µM: 87%
[1]; 37,5 μM, read-out: Incorporation of valine relative to control (0 μM = 100%)
  activity at 37.5 µM: 92%
[1]; adenine and valine incorporation, in vitro
  times as effective as Tiloron: more than 10 times
[2]; substrate 5-iodo-2-deoxy(6-3H) uridine
  IC50: 12 µM
[2]; substrate (6-3H) uridine
  IC50: 36 µM and 12.6 µg/mL
[2]; substrate (thymine U-14C) thymidine
  IC50: 4 µM
[2]; substrate L-(U-14)leucine
  IC50: 29 µM
[2]; substrate L-(U-14C) amino acid mixture, Table VII
  IC50: 32 µM
[3]; s.c. 5×8 mg/kg
  Haemolysins % of control titre: 132%
  Haemolysins titre: 49
[3]; s.c. 5×40 mg/kg
  Haemolysins % of control titre: under 27%
[3]; s.c. 5×40 mg/kg, Suppressed
  Haemolysins titre: under 10
[3]; s.c. 11×8 mg/kg
  Haemolysins % of control titre: under 27%
[3]; s.c. 11×8 mg/kg, Suppressed
  Haemolysins titre: under 10
[3]; s.c. 11×40 mg/kg
  Haemolysins % of control titre: under 27%
[3]; s.c. 11×40 mg/kg, Suppressed
  Haemolysins titre: under 10
[4]
  IC50: 31 µM
[5]; mice, in words, hydrochloride
  Immunosuppressive effect on antibody formation: immunosuppressive effects on antibody formation in mice; also recorded: inhibition of the formation of immunological serum anti-bodies
[5]; s.c. 5×8 mg/kg
  Haemagglutinins % of control titre: 71%
  Haemagglutinins titre: 243
[5]; s.c. 5×40 mg/kg
  Haemagglutinins % of control titre: 3.5%
  Haemagglutinins titre: 12
[5]; s.c. 11×8 mg/kg
  Haemagglutinins % of control titre: 71%
  Haemagglutinins titre: 243
[5]; s.c. 11×40 mg/kg, Suppressed
  Haemagglutinins % of control titre: under 2.9%
  Haemagglutinins titre: under 10
[6]; iv, intravenously
  LD50: 90 mg/kg
[6]; po, orally
  LD50: 600 mg/kg
[6]; sc, subcutaneously
  LD50: 490 mg/kg
[7]
  IC50: 5 µM
